Columns and labels:
[1] = tested on: HEK293/API2-MALT1/NF-κB reporter cells; assay: Inhibition of reporter activity in HEK293/API2-MALT1/NF-κB reporter cells; assay type: cell-based; conditions: Homo sapiens, 24 hours with test substance, One-glo luminescence
Outline: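 HEK293 cells with constitutive NF-κB activation by API2-MALT1 fusion, carrying an NF-κB reporter; 293T/CMV reporter cells served as negative control. Cells seeded 24 h, then exposed to compound at final 10,000, 1,000, 100 and 10 nM for 24 h at 37 °C; luminescence read with One-glo, IC50 by non-linear regression.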

SU-DHL-4 cell lines = assay: Proliferation inhibition test, GCB-DLBCL cell line SU-DHL-4 (negative control line); assay type: cell-based; conditions: Homo sapiens; SU-DHL-4 (GCB-DLBCL, NF-κB pathway-independent, negative control); 96 hours; Cell Counting Kit-8; read-out: Proliferation inhibitory activity against SU-DHL-4 IC50
Outline: (§1)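 Cells exposed 96 h at 37 °C to compound at final 10–10,000 nM: OCI-Ly3 (ABC-DLBCL, NF-κB-dependent, IMDM/10% FBS) and SU-DHL-4 (GCB-DLBCL, NF-κB-independent negative control, RPMI-1640/10% FBS). Viability by CCK-8 absorbance at 450 nm after 4 h; IC50 from 2-parameter logistic regression.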

[2] = target: T1, C-terminal catalytic domain of MALT1 (amino acid residues 329-824) (Homo sapiens, UniProt Q9UDY8); assay: MALT1 protease inhibitory activity (enzyme activity inhibition assay, fluorogenic substrate); assay type: biochemical; conditions: substrate Ac-Leu-Arg-Ser-Arg-AMC 50 µM; 30°C for 2 hours; fluorescence
T1 construct: C-terminal catalytic domain of MALT1 (amino acid residues 329-824)
T1 sequence (Q9UDY8 329-824): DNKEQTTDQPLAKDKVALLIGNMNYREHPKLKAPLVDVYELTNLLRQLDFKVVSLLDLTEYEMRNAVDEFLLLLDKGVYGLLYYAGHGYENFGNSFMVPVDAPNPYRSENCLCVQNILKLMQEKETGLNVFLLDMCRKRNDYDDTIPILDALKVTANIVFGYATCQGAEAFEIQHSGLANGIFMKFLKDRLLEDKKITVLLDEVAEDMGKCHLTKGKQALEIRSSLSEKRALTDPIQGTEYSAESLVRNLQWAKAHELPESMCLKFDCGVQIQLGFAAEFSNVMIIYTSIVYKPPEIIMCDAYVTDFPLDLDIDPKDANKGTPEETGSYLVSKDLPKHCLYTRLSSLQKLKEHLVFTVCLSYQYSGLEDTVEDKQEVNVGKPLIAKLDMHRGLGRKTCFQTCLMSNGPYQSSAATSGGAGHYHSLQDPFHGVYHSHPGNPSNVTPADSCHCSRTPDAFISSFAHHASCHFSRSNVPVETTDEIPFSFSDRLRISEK
Outline: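 Human MALT1 catalytic domain (residues 329-824) with Ac-Leu-Arg-Ser-Arg-AMC at 50 µM final, pH 7.5 Tris/HEPES buffer with 0.8 M Na citrate, DTT and CHAPS. Compounds at 0.1 to 10000 nM final, n = 2; reaction 2 h at 30°C. Fluorescence (ex 380/em 460 nm) fitted to a 2-parameter logistic model for IC50.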

OCI-Ly3 cell lines = assay: Proliferation inhibition test, ABC-DLBCL cell line OCI-Ly3; assay type: cell-based; conditions: Homo sapiens; OCI-Ly3 (ABC-DLBCL, NF-κB pathway-dependent); 96 hours; Cell Counting Kit-8; read-out: Proliferation inhibitory activity against OCI-Ly3 IC50
Outline: as §1

[3] = Central nervous system (CNS) penetration study in mice; assay type: in vivo; conditions: female, BALB/cCrSlc, mouse, ip, 30 mg/kg intraperitoneally, three hours later, cerebrum and plasma by LC-MS/MS, read-out: Brain-to-plasma concentration ratio (Kp value)
Experimental: To evaluate the central nervous system (CNS) penetration of a test substance, a central nervous system penetration study was conducted using mice.
Six-week-old female BALB/cCrSlc mice (Japan SLC) were used. The test substance suspended in 0.5% methylcellulose was intraperitoneally administered to mice at a dose of 30 mg/kg. Three hours later, blood was collected from the abdominal vena cava under isoflurane anesthesia, and plasma was obtained by centrifugation. After exsanguination from the abdominal vena cava, the cerebrum was collected.
The drug concentrations of the collected plasma and cerebrum were measured by LC-MS/MS. To determine the brain penetration of the drug, the brain-to-plasma concentration ratio (Kp value) was calculated.

Row | Structure (SMILES) | IC50 [1] [µM] | IC50 (SU-DHL-4 cell lines) [µM] | IC50 [2] [µM] | IC50 (OCI-Ly3 cell lines) [µM] | Kp at 3 h [3]
1 | CCn1cc(C(=O)C2C[C@@H](C)N(c3ncc(F)cc3I)[C@H](C)C2)c2cc(Cl)c(-n3nccn3)nc21 (stereo partly drawn) [Example 14, [5-chloro-1-ethyl-6-(2H-1,2,3-triazol-2-yl)-1H-pyrrolo[2,3-b]pyridin-3-yl][(2R,6R)-1-(5-fluoro-3-iodopyridin-2-yl)-2,6-dimethylpiperidin-4-yl]methanone] | 0.07 | 8.5 | 0.058 | 0.47 | 0.74
2 | CC(C)n1cc(C(=O)C2C[C@@H](C)N(c3ncc(F)cc3I)[C@H](C)C2)c2cc(Cl)c(-n3nccn3)nc21 (stereo partly drawn) [Example 17, [5-chloro-1-isopropyl-6-(2H-1,2,3-triazol-2-yl)-1H-pyrrolo[2,3-b]pyridin-3-yl][(2R,6R)-1-(5-fluoro-3-iodopyridin-2-yl)-2,6-dimethylpiperidin-4-yl]methanone] | 0.3 | 6.7 | 0.16 | 0.69 | 0.26
3 | CCn1cc(C(=O)C2C[C@@H](C)N(c3ncc(F)cc3I)[C@H](C)C2)c2cc(Cl)c(-c3ncccn3)nc21 (stereo partly drawn) [Example 18, [5-chloro-1-ethyl-6-(pyrimidin-2-yl)-1H-pyrrolo[2,3-b]pyridin-3-yl][(2R,6R)-1-(5-fluoro-3-iodopyridin-2-yl)-2,6-dimethylpiperidin-4-yl]methanone] | 0.1 | 6.7 | 0.065 | 0.48 | 0.63
4 | CCCn1cc(C(=O)c2cnn(-c3cncc4c(F)cccc34)c2C(F)(F)F)c2cc(Cl)c(-c3ncccn3)nc21 [Example 26, [5-chloro-1-propyl-6-(pyrimidin-2-yl)-1H-pyrrolo[2,3-b]pyridin-3-yl][1-(8-fluoroisoquinolin-4-yl)-5-(trifluoromethyl)-1H-pyrazol-4-yl]methanone] | 0.11 | 1.4 | 0.051 | 0.14 | 0.27
5 | Cn1cc(C(=O)c2cnn(-c3cccc4nnsc34)c2C(F)(F)F)c2cc(Cl)c(-n3nccn3)nc21 [Example 28, [1-(1,2,3-benzothiadiazol-7-yl)-5-(trifluoromethyl)-1H-pyrazol-4-yl][5-chloro-1-methyl-6-(2H-1,2,3-triazol-2-yl)-1H-pyrrolo[2,3-b]pyridin-3-yl]methanone] | 0.44 | > 10 | 0.024 | 0.61 | 1.75
6 | Cn1cc(C(=O)c2cnn(-c3cccc4nnsc34)c2C(F)(F)F)c2cc(Cl)c(-c3ncccn3)nc21 [Example 29, [1-(1,2,3-benzothiadiazol-7-yl)-5-(trifluoromethyl)-1H-pyrazol-4-yl][5-chloro-1-methyl-6-(pyrimidin-2-yl)-1H-pyrrolo[2,3-b]pyridin-3-yl]methanone] | 0.22 | > 10 | 0.017 | 1 | 0.98

Reference: EP4772507A1, “AZAINDOLE COMPOUND AND MEDICAL DRUG” (Nippon Shinyaku Co., Ltd., priority 2023, dated 2025)
